From US7049313B2, “ATM inhibitors” (Kudos Pharmaceuticals Ltd., priority 2002, dated 2006)
Entries after “also recorded” stand apart in the source; their conditions may differ.

Key:
HIV-1 HXB2 AZT resistant = assay: microbe, parasite or virus in culture; format: cell-based; conditions: for IC50: Human immunodeficiency virus 1, HXB2, C8166, 96 h, read-out: HIV-1 HXB2 (IC50 μM) AZT resistant
Description: (§1) HIV-1 4-day Replication Assays
(§2) C8166 T-cells were washed and infected with HIV-1 (strains HXB2wt and HXB2AZTres, RT amino acid changes 67N, 70R, 215F, 219Q) at low multiplicity of infection for one hour at room temperature. The cells were then washed and distributed (5×10^4 cells/well) in triplicate into the wells of 96-well cell culture plates containing different concentrations of inhibitors. The plates were then incubated at 37° C. for 4 days. The cell-free culture fluid was then harvested and assayed for levels of p24 viral antigen using a commercially available ELISA kit (Murex), according to the manufacturers' instructions. Cytotoxicity was evaluated by distributing (5×10^4 cells/well) uninfected C8166 T-cells into triplicate wells of 96-well cell culture plates containing different concentrations of inhibitor and incubating the plates at 37° C. After 4 days, 25 μl of XTT, which is metabolised by viable but not dead cells was added and the plates incubated for a further 3 hours at 37° C. Finally, the absorbance was read at a wavelength of 450 nm.

HIV-1 HXB2 wild type = assay: HIV-1 4-day replication assay, wild type strain (p24 antigen ELISA); format: cell-based; conditions: for IC50: Human immunodeficiency virus 1, HXB2, 96 h, C8166 T-cells, 4-day replication, p24
Description: as §1, §2

[1] = Cytotoxicity on uninfected C8166 T-cells (XTT dye reduction); format: cell-based; conditions: human, uninfected C8166 T-cells, read-out: 50% cytotoxic concentration (CC50)
Description: as §2

C8166 T-cells = assay: as above; format: cell-based; conditions: 4 days, XTT, FIG. 8C
Description: as §2

LoVo cells = assay: Clonogenic survival assay, sensitisation to DNA double strand break chemotherapeutics; format: cell-based, human; conditions: 10 μM of compound
Description: (§3) Sensitisation of Cells to Ionising Radiation or DNA Double Strand Break Chemotherapies
(§4) The HeLa line was used for ionising radiation studies while LoVo was used for studies with chemotherapeutic agents. […] After 1 hour, a concentration range of either etoposide (FIG. 2), camptothecin (FIG. 3) or doxorubicin (FIG. 4) was added. […] For all treatments, after a further 16 hours incubation, drug containing media was removed and fresh media added prior to a further incubation of 10 days before the staining of colonies with Giemsa. All compounds were solubilised in DMSO, with a final concentration on cells of no more than 0.1%. Resulting colonies containing >50 cells were counted as positives.

HIV-1 [2] = assay: HIV-1 based LUCIA, all other cell lines tested; conditions: Human immunodeficiency virus 1
From the text: Retroviral Transductions (LUCIA).

HIV-1 RT = target: T1, HIV-1 RT (Human immunodeficiency virus type 1 group M subtype B, UniProt P04585); assay: Chemilluminescent HIV-1 reverse transcriptase assay; format: biochemical; conditions: FIG. 6
T1 construct: chemilluminescent HIV-1 reverse transcriptase assays
From the text: Control RT inhibition using nevirapine (□) is also shown.

HIV-1 [3] = assay: HIV-1 based luciferase assay (LUCIA) on Jurkat T-cells; format: cell-based; conditions: FIG. 5
HeLa cells = assay: Clonogenic survival assay, sensitisation to ionising radiation; format: cell-based, human
Description: as §3, §4

Row | SMILES | IC50 (HIV-1 HXB2 AZT resistant) [µM] | IC50 (HIV-1 HXB2 wild type) [µM] | CC50 at 4 days [1] [nM] | cytotoxicity (percentage of viable cells) (C8166 T-cells) | inhibition of HIV-1 replication, wild-type versus AZT resistant strain (HIV-1 HXB2 AZT resistant; 4-day replication assays, FIG. 8A, 8B) | inhibition of HIV-1 replication (HIV-1 HXB2 wild type; 4-day replication assays, FIG. 8) | sensitisation of cells to etoposide (% survival) (LoVo cells; FIG. 2) | sensitisation of cells to camptothecin (% survival) (LoVo cells; FIG. 3) | sensitisation of cells to doxorubicin (% survival) (LoVo cells; FIG. 4) | IC50 (HIV-1 [2]) [nM] | inhibition of HIV-1 RT (HIV-1 RT) | IC50 (HIV-1 [3]; Human immunodeficiency virus 1, Jurkat, read-out: IC50 in HIV-1 based LUCIA, Jurkat T-cells) [nM] | inhibition of retroviral vector transduction (LUCIA) (HIV-1 [3]; Jurkat T-cells) | sensitisation of cells to ionising radiation (% survival) (HeLa cells; HeLa cells, compound at 0.5 μM and 2 μM, FIG. 1) | sensitising tumour derived cell lines to DNA double strand break inducing agents (HeLa cells; summary of FIGS. 1–4 (HeLa and LoVo))
1 | Cc1cn([C@H]2C[C@H](N=[N+]=[N-])[C@@H](CO)O2)c(=O)[nH]c1=O [AZT, 3′-azido-3′-deoxythymidine, reference compound] | 0.05 | 0.002 | – | – | – | – | – | – | – | – | – | – | – | – | –
2 | O=c1cc(-c2cccc3c2Sc2ccccc2S3)oc(N2CCOCC2)c1 [Compound 4, 2-Thianthren-1-yl-6-morpholin-4-yl-pyran-4-one] | 0.06 | 0.1 | > 20000 | No significant cytotoxicity; also recorded: no significant cytotoxic effects | inhibits HIV-1 replication equally well in both wild-type and AZT resistant HIV-1 strains; also recorded: inhibited HIV-1 replication equally well | inhibits HIV-1 replication | can sensitise cells to etopside | can sensitise cells to camptothecin | can sensitise cells to doxorubicin | 1000 to 10000 | does not inhibit HIV-1 RT | ~1000 | can inhibit recombinant retroviral vector infections; also recorded: efficiently inhibit HIV-1 LUCIA at low micromolar concentrations | can sensitise cells to ionising radiation | significant effect on sensitising tumour derived cell lines to DNA double strand break inducing agents
